# According to patent US4468511A, “C-20- And C-23-Modified macrolide derivatives” (Eli Lilly and Company, priority 1983, dated 1984):
# Read-outs that look alike come from different tables or passages of the source.
# Legend:
# Escherichia coli EC14 = experiment: MIC, standard agar-dilution assay; assay type: cell-based; settings: agar-dilution; Escherichia coli EC14; read-out: MIC
# Protocol: (§1) Certain of the derivatives are active against some gram-negative bacteria, such as Pasteurella species. The MIC's in Table II were determined by standard agar-dilution assays. The MIC's in Table III were obtained using a conventional broth-dilution microtiter test.
# Escherichia coli TEM = experiment: MIC, standard agar-dilution assay; assay type: cell-based
# How it was run: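 Minimum inhibitory concentrations against Escherichia coli were measured with a standard agar-dilution method. The result for each derivative is the lowest concentration that inhibits bacterial growth, given in ug/mL.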
# [1] = system: Klebsiella pneumoniae KAE; experiment: MIC, standard agar-dilution assay; assay type: cell-based; settings: agar-dilution; Klebsiella pneumoniae KAE; read-out: MIC
# How it was run: (§2)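 Two formats were used. Broth dilution in microtiter plates served for Pasteurella and Mycoplasma, while agar dilution served for Klebsiella.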
# [2] = system: Klebsiella pneumoniae X26; experiment: MIC, standard agar-dilution assay; assay type: cell-based; settings: agar-dilution; Klebsiella pneumoniae X26; read-out: MIC
# How it was run: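 Broth microdilution MICs cover P. hemolytica, P. multocida and M. gallisepticum. The agar-dilution MIC covers K. pneumoniae only.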
# [3] = system: Staphylococcus aureus V41; experiment: MIC, standard agar-dilution assay; assay type: cell-based
# Protocol: as §1
# [4] = system: Staphylococcus aureus X1.1; experiment: MIC, standard agar-dilution assay; assay type: cell-based; settings: Staphylococcus aureus, X1.1
# How it was run: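 Minimum inhibitory concentration against Staphylococcus aureus strain X1.1 was measured with a standard agar-dilution method. The result is reported as the MIC in ug/mL, i.e. the lowest compound concentration in agar that prevents visible growth of this organism.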
# [5] = system: Streptococcus Group D X66; experiment: MIC, standard agar-dilution assay; assay type: cell-based
# Protocol: as §1
# [6] = system: Streptococcus pneumoniae Park I; experiment: MIC, standard agar-dilution assay; assay type: cell-based
# Protocol: as §1
# [7] = system: Streptococcus pyogenes 9960; experiment: MIC, standard agar-dilution assay; assay type: cell-based; settings: agar-dilution, Streptococcus 9960, read-out: MIC
# Protocol: as §1
# [8] = system: Streptococcus pyogenes C203; experiment: MIC, standard agar-dilution assay; assay type: cell-based
# Protocol: as §1
# [9] = system: Haemophilus influenzae 76; experiment: MIC, standard agar-dilution assay; assay type: cell-based; settings: Haemophilus influenzae, 76
# Protocol: (§3) The MIC's in Table II were determined by standard agar-dilution assays. The MIC's in Table III were obtained using a conventional broth-dilution microtiter test.
# [10] = system: Haemophilus influenzae C.L.; experiment: MIC, standard agar-dilution assay; assay type: cell-based
# Protocol: as §3
# [11] = system: Staphylococcus aureus X400; experiment: MIC, standard agar-dilution assay; assay type: cell-based
# Protocol: as §3
# [12] = system: Staphylococcus epidermidis EPI2; experiment: MIC, standard agar-dilution assay; assay type: cell-based
# Protocol: as §3
# [13] = system: Staphylococcus aureus S13E; experiment: microbe, parasite or virus in culture; assay type: cell-based
# Protocol: as §3
# [14] = system: Staphylococcus epidermidis EPI1; experiment: microbe, parasite or virus in culture; assay type: cell-based; settings: Staphylococcus epidermidis, EPI1
# Protocol: as §3
# [15] = system: Mycoplasma gallisepticum 34159; experiment: MIC, conventional broth-dilution microtiter test; assay type: cell-based; settings: Mycoplasmoides gallisepticum; broth-dilution microtiter; Mycoplasma gallisepticum 34159, Resistant strain; read-out: MIC
# How it was run: as §2
# [16] = system: Mycoplasma gallisepticum 41313; experiment: MIC, conventional broth-dilution microtiter test; assay type: cell-based; settings: Mycoplasmoides gallisepticum; broth-dilution microtiter; Mycoplasma gallisepticum 41313, Resistant strain; read-out: MIC
# How it was run: as §2
# Mycoplasma gallisepticum = experiment: MIC, conventional broth-dilution microtiter test; assay type: cell-based; settings: Mycoplasmoides gallisepticum
# How it was run: as §2
# Mycoplasma hyorhinis = experiment: MIC, conventional broth-dilution microtiter test; assay type: cell-based; settings: broth-dilution microtiter; Mycoplasma hyorhinis; read-out: MIC
# How it was run: (§4)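 Minimum inhibitory concentrations are determined by conventional broth dilution in microtiter wells for Pasteurella and Mycoplasma isolates. For Klebsiella pneumoniae KAE, the standard agar-dilution assay is used.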
# Mycoplasma synoviae = experiment: MIC, conventional broth-dilution microtiter test; assay type: cell-based; settings: Mycoplasmopsis synoviae
# How it was run: as §4
# [17] = system: Pasteurella hemolytica 22C; experiment: MIC, conventional broth-dilution microtiter test; assay type: cell-based
# How it was run: as §2
# [18] = system: Pasteurella hemolytica 23C; experiment: MIC, conventional broth-dilution microtiter test; assay type: cell-based
# How it was run: as §2
# [19] = system: Pasteurella hemolytica 41D; experiment: MIC, conventional broth-dilution microtiter test; assay type: cell-based
# How it was run: as §2
# [20] = system: Pasteurella multocida 17E; experiment: MIC, conventional broth-dilution microtiter test; assay type: cell-based
# How it was run: as §2
# [21] = system: Pasteurella multocida 22A; experiment: MIC, conventional broth-dilution microtiter test; assay type: cell-based
# How it was run: as §2
# [22] = system: Pasteurella multocida 40G; experiment: MIC, conventional broth-dilution microtiter test; assay type: cell-based
# How it was run: as §2
# [23] = system: Pasteurella multocida 60A; experiment: MIC, conventional broth-dilution microtiter test; assay type: cell-based
# How it was run: as §2
# [24] = system: Pasteurella multocida 68C; experiment: MIC, conventional broth-dilution microtiter test; assay type: cell-based
# How it was run: as §2
# Staphylococcus aureus = experiment: MIC, conventional broth-dilution microtiter test; assay type: cell-based
# Protocol: as §1
# Streptococcus sp. 80 = experiment: MIC, conventional broth-dilution microtiter test; assay type: cell-based
# Protocol: as §1
# [25] = system: Streptococcus pyogenes C203; experiment: Protection of mice experimentally infected with S. pyogenes C203; assay type: in vivo
# Protocol: Some of the derivatives of this invention have shown in vivo antimicrobial activity against experimentally-induced infections in laboratory animals. When two doses of test compound were administered to mice experimentally infected with S. pyogenes C203, the activity observed was measured as an ED50 value [effective dose in mg/kg to protect 50% of the test animals: see Warren Wick, et al., J. Bacteriol. 81, 233-235 (1961)].
# Pasteurella multocida = experiment: Pasteurella infection in one-day old chicks; assay type: in vivo; settings: subcutaneous, 30 mg/kg × 2, 1 and 4 hours post-challenge
# Protocol: Certain of the formula 1 compounds of this invention have also shown in vivo activity against infections induced by gram-negative bacteria. Table V summarizes the results of tests in which illustrative compounds were evaluated against a Pasteurella infection in one-day old chicks. The compounds were administered parenterally after challenge of the chicks with Pasteurella multocida (0.1 ml of a 10^-4 dilution of a twenty-hour tryptose broth culture of an avian P. multocida given subcutaneously). In these tests, unless indicated otherwise, all non-medicated infected chicks died within 24 hours of Pasteurella challenge. In the tests summarized in Table V, the compounds were administered by subcutaneous injection at a dosage of 30 mg/kg, 1 and 4 hours post-challenge of the chicks with P. multocida.
# [26] = agar-dilution, Streptococcus pyogenes C203, read-out: MIC
# [27] = agar-dilution, Haemophilus influenzae C.L., Ampicillin-sensitive strain, read-out: MIC
# [28] = broth-dilution microtiter, Mycoplasma synoviae, read-out: MIC
# [29] = C203, sc, mice, subcutaneous, mg/kg × 2, doses given 1 and 4 hours postinfection, read-out: ED50 Subcutaneous
# [30] = agar-dilution, Escherichia coli TEM, read-out: MIC
# [31] = agar-dilution, Staphylococcus epidermidis EPI2, read-out: MIC
# [32] = broth-dilution microtiter, Pasteurella hemolytica 22C, read-out: MIC
# [33] = broth-dilution microtiter, Pasteurella hemolytica 23C, read-out: MIC
# [34] = broth-dilution microtiter, Pasteurella hemolytica 41D, read-out: MIC
# [35] = broth-dilution microtiter, Pasteurella multocida 17E, Bovine isolate, read-out: MIC
Compound,MIC (Escherichia coli EC14),MIC [1],MIC [2],"MIC ([3]; Staphylococcus aureus, V41)",MIC [4],MIC [5],MIC ([6]; Streptococcus pneumoniae),MIC [7],"MIC [8, 26]",MIC [9],"MIC [10, 27]","MIC ([11]; Staphylococcus aureus, X400)",MIC [13],MIC [14],MIC [15],MIC [16],MIC (Mycoplasma hyorhinis),"ED50 ([25]; C203, po, read-out: ED50 Oral)","ED50 [25, 29]",Number of Deaths/Number Treated (Pasteurella multocida),also measured
"CCC1CC(C)C(=O)C=CC(C)=CC(CN2CCCCCCC2)C(CC)OC(=O)CC(O)C(C)C1OC1OC(C)C(O)C(N(C)C)C1O (stereo not drawn) [Compound 43, 23-Octahydroazocin-1-yl-20,23-dideoxy-20-dihydro-OMT]",> 128 µg/mL,> 128 µg/mL,4 µg/mL,0.5 µg/mL,0.5 µg/mL,1 µg/mL,1 µg/mL,2 µg/mL,0.12 µg/mL,8 µg/mL,4 µg/mL,1 µg/mL,0.5 µg/mL,0.5 µg/mL,> 50 µg/mL,> 50 µg/mL,50 µg/mL,> 100 mg/kg,> 12.5 mg/kg,8/10,"MIC (Escherichia coli TEM; Escherichia coli): 16 µg/mL; MIC ([12]; Staphylococcus epidermidis, EPI2): 0.25 µg/mL; MIC (Mycoplasma gallisepticum): 0.78 µg/mL; MIC (Mycoplasma synoviae; [28]): > 50 µg/mL; MIC ([17]; Pasteurella, 22C): 0.78 µg/mL; MIC ([18]; Pasteurella, 23C): 1.56 µg/mL; MIC ([19]; Pasteurella, 41D): 1.56 µg/mL; MIC ([20]; Pasteurella multocida, 17E): 0.78 µg/mL; MIC ([21]; Pasteurella multocida, 22A): 1.56 µg/mL; MIC ([22]; Pasteurella multocida, 40G): 1.56 µg/mL; MIC ([23]; Pasteurella multocida, 60A): 0.78 µg/mL; MIC ([24]; Pasteurella multocida, 68C): 1.56 µg/mL; MIC (Staphylococcus aureus; broth-dilution microtiter, read-out: MIC): 0.39 µg/mL; MIC (Streptococcus sp. 80; Streptococcus, SP.80): 0.78 µg/mL"
"CCC1CC(C)C(=O)C=CC(C)=CC(CN2CCC(O)CC2)C(CC)OC(=O)CC(O)C(C)C1OC1OC(C)C(O)C(N(C)C)C1O (stereo not drawn) [Compound 45, 23-(4-Hydroxypiperidino)-20,23-dideoxy-20-dihydro-OMT]",> 128 µg/mL,> 128 µg/mL,16 µg/mL,,8 µg/mL,64 µg/mL,,128 µg/mL,32 µg/mL,64 µg/mL,32 µg/mL,,8 µg/mL,8 µg/mL,> 50 µg/mL,50 µg/mL,> 50 µg/mL,> 100 mg/kg,> 10 mg/kg,10/10,"MIC (Escherichia coli TEM; [30]): > 128 µg/mL; MIC ([3]; agar-dilution, Staphylococcus aureus V41, Penicillin-resistant strain, read-out: MIC): 16 µg/mL; MIC ([6]; agar-dilution, Streptococcus pneumoniae Park I, read-out: MIC): 2 µg/mL; MIC ([11]; agar-dilution, Staphylococcus aureus X400, Methicillin-resistant strain, read-out: MIC): 32 µg/mL; MIC [12, 31]: 2 µg/mL; MIC (Mycoplasma gallisepticum; broth-dilution microtiter, Mycoplasma gallisepticum, read-out: MIC): 6.25 µg/mL; MIC (Mycoplasma synoviae): 12.5 µg/mL; MIC [17, 32]: 25 µg/mL; MIC [18, 33]: 25 µg/mL; MIC [19, 34]: 25 µg/mL; MIC [20, 35]: 25 µg/mL; MIC ([21]; Pasteurella multocida, 22A): 12.5 µg/mL; MIC ([22]; Pasteurella multocida, 40G): 12.5 µg/mL; MIC ([23]; Pasteurella multocida, 60A): 12.5 µg/mL; MIC ([24]; Pasteurella multocida, 68C): 12.5 µg/mL; MIC (Staphylococcus aureus): 12.5 µg/mL; MIC (Streptococcus sp. 80; broth-dilution microtiter, Streptococcus sp. 80, read-out: MIC): 1.56 µg/mL"
"CCC1CC(C)C(=O)C=CC(C)=CC(COc2cccnc2)C(CC)OC(=O)CC(O)C(C)C1OC1OC(C)C(O)C(N(C)C)C1O (stereo not drawn) [Compound 46, 23-O-(3-Pyridyl)-20-deoxy-20-dihydro-OMT]",> 128 µg/mL,> 128 µg/mL,4 µg/mL,0.5 µg/mL,1 µg/mL,2 µg/mL,0.5 µg/mL,4 µg/mL,,16 µg/mL,,2 µg/mL,1 µg/mL,1 µg/mL,50 µg/mL,50 µg/mL,25 µg/mL,> 100 mg/kg,> 10 mg/kg,10/10,"MIC (Escherichia coli TEM; [30]): 128 µg/mL; MIC ([8]; Streptococcus pyogenes, C203): 2 µg/mL; MIC ([10]; Haemophilus influenzae): 16 µg/mL; MIC [12, 31]: 0.25 µg/mL; MIC (Mycoplasma gallisepticum): 1.56 µg/mL; MIC (Mycoplasma synoviae; [28]): 6.25 µg/mL; MIC [17, 32]: 50 µg/mL; MIC [18, 33]: 50 µg/mL; MIC [19, 34]: 25 µg/mL; MIC [20, 35]: 12.5 µg/mL; MIC ([21]; broth-dilution microtiter, Pasteurella multocida 22A, read-out: MIC): 12.5 µg/mL; MIC ([22]; broth-dilution microtiter, Pasteurella multocida 40G, read-out: MIC): 12.5 µg/mL; MIC ([23]; broth-dilution microtiter, Pasteurella multocida 60A, Avian isolate, read-out: MIC): 12.5 µg/mL; MIC ([24]; broth-dilution microtiter, Pasteurella multocida 68C, read-out: MIC): 6.25 µg/mL; MIC (Staphylococcus aureus): 1.56 µg/mL; MIC (Streptococcus sp. 80; Streptococcus, SP.80): 3.12 µg/mL"
